According to patent US20250011777A1, “DELIVERY OF ANITSENSE OLIGOMERS BY MIRROR IMAGE PEPTIDES” (SAREPTA THERAPEUTICS, INC., priority 2021, published 2025):
pEC50: −log10 of the molar value.

What was measured:
[1] = after administration; cited from earlier work
[2] = tested on: HeLa 654 cells (EGFP gene interrupted by a mutated intron of ß-globin, IVS2-654); test: EGFP 654 assay (corrective splicing by PMO IVS2-654, flow cytometry); type: cell-based; details: PMO-CPP conjugates, 22 h, read-out: EC50 in concentration-response EGFP assay
Protocol: Purified constructs were then tested using an activity-based readout in which nuclear delivery results in fluorescence. Briefly, HeLa cells stably transfected with an Enhanced Green Fluorescent Protein (EGFP) gene interrupted by a mutated intron of ß-globin (IVS2-654) produce a non-fluorescent EGFP protein. Successful delivery of PMO IVS2-654 to the nucleus results in corrective splicing and EGFP synthesis.
The amount of PMO delivered to the nucleus is therefore correlated with EGFP fluorescence, quantified by flow cytometry. Activity is reported as mean fluorescence intensity (MFI) relative to PMO alone. This activity assay provides indirect information on how much active PMO is delivered to the nucleus. Relative efficiency of a PMO-CPP could be characterized by comparing activity to internal concentration, as discussed later (FIG. 2). […]
For individual peptide testing, PMO-peptides were dissolved in PBS without Ca2+ or Mg2+ at a concentration of 1 mM (determined by UV) before being diluted in MEM. […] Gates were applied to the data to ensure that cells that were positive for propidium iodide or had forward/side scatter readings that were sufficiently different from the main cell population were excluded. […]
Analysis was conducted using Graphpad Prism 7 and FlowJo. For each sample, the mean fluorescence intensity (MFI) and the number of gated cells was measured. […]

| Substance | time within which the majority of the drug is cleared renally [1] [h] | pEC50 [2] |
| --- | --- | --- |
| Eteplirsen | ≤ 24 | – |
| RXRRBRRXRRBR [BPEP] | – | ~5.52 |
